The test deals with T1, acetylcholinesterase from electrophorus electricus (Electrophorus electricus, UniProt O42275).
T1 construct: purchased Sigma–Aldrich (St. Louis, MO, USA)
In words: biochemical. Particulars: read-out: AChE inhibitory activity, IC50 Values (converted). On the procedure:
All solvents were HPLC grade, purchased from Merck (Darmstadt, Germany). […] Sodium monobasic […] were purchased from Merck (Darmstadt, Germany), and acetylcholinesterase from electrophorus electricus, 5,5′-Dithiobis (2-nitrobenzoic acid), and […] were obtained from Sigma–Aldrich (St. Louis, MO, USA).
The AChE inhibitory activity was evaluated using Ellman’s method, as reported previously. Each sample (20 µL of 5 mg/mL in DMSO) was dispensed in triplicate into a 96-well microplate and mixed with 190 µL of DTNB, 20 µL of substrate (ATCI). The control wells contained 2% of DMSO instead of the extract. The enzymatic activity was measured at 412 nm every 30 s intervals for 3 min. The buffer solution was used as negative control.
The percentage inhibition (%I) of each sample and the positive control (physostigmine) was calculated using the formula:%I: [(Ac − As)/(Ac)] × 100(1) where (%I): Percentage inhibition • Ac: Absorbance of negative control • As: Absorbance of sample
The experiments were expressed as the mean ± standard error of the mean (SEM) in triplicates.

Setting [1] is: Ellman's method, 412 nm, mean ± SEM, triplicates.

Where two headings read alike, the source gives them in different places.

T1 sequence (O42275 24-633): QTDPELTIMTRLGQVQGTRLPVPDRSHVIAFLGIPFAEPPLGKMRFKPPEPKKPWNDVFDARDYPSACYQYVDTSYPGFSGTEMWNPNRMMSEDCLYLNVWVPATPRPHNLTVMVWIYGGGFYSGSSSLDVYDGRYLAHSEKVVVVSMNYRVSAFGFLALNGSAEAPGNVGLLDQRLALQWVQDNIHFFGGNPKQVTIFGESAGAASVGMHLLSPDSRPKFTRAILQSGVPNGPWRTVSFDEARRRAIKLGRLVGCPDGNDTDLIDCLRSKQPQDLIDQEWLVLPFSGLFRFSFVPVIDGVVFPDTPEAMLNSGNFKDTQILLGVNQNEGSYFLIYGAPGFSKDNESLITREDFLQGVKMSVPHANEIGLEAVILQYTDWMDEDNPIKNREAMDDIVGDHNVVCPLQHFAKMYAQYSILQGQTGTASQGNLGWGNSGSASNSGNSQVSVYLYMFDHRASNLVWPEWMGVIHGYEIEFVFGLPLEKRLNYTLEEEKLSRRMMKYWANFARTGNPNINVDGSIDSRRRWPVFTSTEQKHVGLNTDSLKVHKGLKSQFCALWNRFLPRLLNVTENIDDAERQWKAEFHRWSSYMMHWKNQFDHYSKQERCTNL

As for `C[C@H]1[C@H](C)CC[C@]2(C(=O)O)CC[C@]3(C)C(=CC[C@@H]4[C@@]5(C)C[C@@H](O)[C@H](O)[C@@](C)(CO)[C@@H]5CC[C@]43C)[C@H]12` [Asiatic acid, asiatic acid], the IC50 (in general, the concentration that inhibits the measured activity by half) under setting [1] was 30.8 µM. Consider `C[C@H]1[C@H](C)CC[C@]2(C(=O)O)CC[C@]3(C)C(=CC[C@@H]4[C@@]5(C)C[C@@H](O)[C@H](O)[C@@](C)(CO)[C@@H]5[C@H](O)C[C@]43C)[C@H]12` [Madecassic acid, madecassic acid], for which, under setting [1], the half-maximal inhibitory concentration (IC50) was 35.3 µM.

Consider `C[C@H]1[C@H](C)CC[C@]2(C(=O)O[C@@H]3O[C@H](CO[C@@H]4O[C@H](CO)[C@@H](O[C@@H]5O[C@@H](C)[C@H](O)[C@@H](O)[C@H]5O)[C@H](O)[C@H]4O)[C@@H](O)[C@H](O)[C@H]3O)CC[C@]3(C)C(=CC[C@@H]4[C@@]5(C)C[C@@H](O)[C@H](O)[C@@](C)(CO)[C@@H]5[C@H](O)C[C@]43C)[C@H]12` [Madecassoside, madecassoside], for which the IC50 was 38.1 µM.

(Values after article PMC7436049, “Combining In Silico and In Vitro Studies to Evaluate the Acetylcholinesterase Inhibitory Profile of Different Accessions and the Biomarker Triterpenes of Centella asiatica” (Molecules, 2020).)
